US7259140B2, “Heparin-binding peptides and uses thereof” (Thomas Jefferson University, priority 2003, dated 2007)
Ends that are not written are not given here.

Assays:
platelets = test: Platelet aggregation with aggregation-inducing agents; format: cell-based, human; conditions: 12 μg/ml; Lovenox 0.5 U/ml; collagen, ADP, ristocetin, epinephrine, SFFLRN, A23187
Procedure: Plasma from six volunteers was tested with various aggregation inducing agents, at several concentrations of each agent, and with six different peptides of the invention. The effect of heparin-binding peptides of the invention on platelet aggregation was determined using standard procedures as previously described. The six peptides which were synthesized and tested were: (ARKKAAKA)4 (SEQ ID NO:31), ARKKAAKA(A16)ARKKAAKA (SEQ ID NO:30), (ARKKAAKA)3ARKKCAKA (SEQ ID NO:33), (ARKKAAKA)3VLVLVLVL (SEQ ID NO:5), C(ARKKAAKA)4C (SEQ ID NO:34), and (AKKARA)6 (SEQ ID NO:32).
The aggregation-inducing agents tested were: collagen, adenosine diphosphate (ADP), ristocetin, epinephrine, the thrombin receptor peptide SFFLRN, and calcium ionophore A23187. Platelets were subjected to protamine, or to SEQ ID NOS:31, 33, 30, 5, 34, or 32 at 12 μg/ml, and Lovenox® at 0.5 U/ml. Platelet aggregation in response to agonists was monitored and percent aggregation was determined over a five minute interval.
The agonist was added after equilibration of the platelets for one minute.

[1] = system: anti-Factor Xa Activity of Unfractionated Heparin; test: Anti-Factor Xa assay: neutralization of unfractionated heparin in citrate or plasma in vitro; format: biochemical, human; conditions: for Unfractionated Heparin Neutralized: UFH 0.7 U/ml
Procedure: The ability of peptides such as (ARKKAAKA)3VLVLVLVL (SEQ ID NO:5) to neutralize the anti-Factor Xa activity of UFH and LMWH in vitro was tested using the Stachrom Heparin kit (Diagnostica Stago), a standard hematology laboratory assay used to measure the anti-Factor Xa activity of heparin. The assay was performed using the low molecular weight heparin enoxaparin sodium (Lovenox®, Aventis Pharmaceuticals, Inc.), unfractionated heparin (UFH), or the non-heparin glycosaminoglycan danaparoid sodium (Orgaran®, Organon Inc., West Orange, N.J.) in 0.32% citrate or in plasma anticoagulated with 0.32% citrate. Enoxaparin is commonly used clinically as a low molecular weight heparin (LMWH). Danaparoid is commonly used clinically as a non-heparin glycosaminoglycan anticoagulant. Currently, the only FDA approved drug to target UFH is protamine, which is not effective in vivo against LMWH or a non-heparin glycosaminoglycan such as danaparoid. Buffer and ATIII are added to form the heparin/ATIII complex, peptide is added, then Factor Xa, reporter dye substrate for Factor Xa activity, and stop solution, and the dye concentration is read at 405 nm. The absorbance of the dye increases with increasing Factor Xa activity, and thus is inversely proportional to the heparin (anti-Factor Xa activity) concentration. Peptides were tested in plasma obtained from three volunteers (A, B, and C). Platelet function inhibitors PG12 and theophylline were added to the blood immediately upon collection. […]

[2] = system: unfractionated heparin (thrombin-induced clot formation); test: Thrombin neutralization assay: clotting time of citrated plasma in the presence of unfractionated heparin; format: biochemical, human; conditions: for Time for clot formation: UFH 0.5 IU/ml
Procedure: It was determined whether heparin-binding peptides of the invention can neutralize unfractionated heparin using the thrombin neutralization assay. The six peptides that were synthesized and used in this Example are: (ARKKAAKA)3VLVLVLVL (SEQ ID NO:5); (ARKKAAKA)(A16)(ARKKAAKA) (SEQ ID NO:30); (ARKKAAKA)4 (SEQ ID NO:31); (AKKARA)6 (SEQ ID NO:32); (ARKKAAKA)3(ARKKCAKA) (SEQ ID NO:33); and cyclized C(ARKKAAKA)4C (SEQ ID NO:34); Citrated plasma was pipetted into a glass tube. Thrombin was added, the tube was manually rotated, and clotting time was determined by observation of clot formation. Normal clotting time is 19-22 seconds.
As a control, to assess the effect of heparin on clot formation, unfractionated heparin was added to the plasma at 0.5 IU anti-thrombin activity/ml and then thrombin was added. Clotting time in the presence of heparin alone was greater than 3 minutes.
To test the effect of peptides, heparin and six peptides at the concentrations indicated in Table 4 were added to the plasma, the mixture was allowed to stand at room temperature for 1 minute, and thrombin was added. The time for the clot to form is indicated. Experiments were performed using plasma from three volunteers—A, B, and C.

[3] = Hemodynamic effects in rats without prior Lovenox; conditions: 2 mg per rat, no Lovenox

**Q.** What does the source list for “ARKKAAKAAAAAAAAAAAAAAAAAARKKAAKA [ARKKAAKA(A16)ARKKAAKA, reference compound]”?
**A.** effect on platelet aggregation (platelets): no significant inhibition or enhancement of aggregation; Unfractionated Heparin Neutralized ([1]; 1 μg/ml Peptide, A Plasma): 0.080 ± 0.050 U/ml; Unfractionated Heparin Neutralized ([1]; 1 μg/ml Peptide, B Plasma): 0.0 U/ml; Unfractionated Heparin Neutralized ([1]; 1 μg/ml Peptide, C Plasma): 0.0 U/ml; Unfractionated Heparin Neutralized ([1]; 1 μg/ml Peptide, Citrate): 0.040 ± 0.017 U/ml; Unfractionated Heparin Neutralized ([1]; 6 μg/ml Peptide, A Plasma): 0.045 ± 0.029 U/ml; Unfractionated Heparin Neutralized ([1]; 6 μg/ml Peptide, B Plasma): 0.005 ± 0.007 U/ml; Unfractionated Heparin Neutralized ([1]; 6 μg/ml Peptide, C Plasma): 0.008 ± 0.012 U/ml; Unfractionated Heparin Neutralized ([1]; 6 μg/ml Peptide, Citrate): 0.064 ± 0.020 U/ml; Unfractionated Heparin Neutralized ([1]; 12 μg/ml Peptide, A Plasma): 0.026 ± 0.018 U/ml; Unfractionated Heparin Neutralized ([1]; 12 μg/ml Peptide, B Plasma): 0.008 ± 0.012 U/ml; Unfractionated Heparin Neutralized ([1]; 12 μg/ml Peptide, C Plasma): 0.0 U/ml; Unfractionated Heparin Neutralized ([1]; 12 μg/ml Peptide, Citrate): 0.047 ± 0.025 U/ml; Unfractionated Heparin Neutralized ([1]; 60 μg/ml Peptide, A Plasma): 0.100 ± 0.021 U/ml; Unfractionated Heparin Neutralized ([1]; 60 μg/ml Peptide, B Plasma): 0.084 ± 0.034 U/ml; Unfractionated Heparin Neutralized ([1]; 60 μg/ml Peptide, C Plasma): 0.022 ± 0.017 U/ml; Unfractionated Heparin Neutralized ([1]; 60 μg/ml Peptide, Citrate): 0.156 ± 0.046 U/ml; Unfractionated Heparin Neutralized ([1]; 120 μg/ml Peptide, A Plasma): 0.112 ± 0.036 U/ml; Unfractionated Heparin Neutralized ([1]; 120 μg/ml Peptide, B Plasma): 0.084 ± 0.018 U/ml; Unfractionated Heparin Neutralized ([1]; 120 μg/ml Peptide, C Plasma): 0.090 ± 0.019 U/ml; Unfractionated Heparin Neutralized ([1]; 120 μg/ml Peptide, Citrate): 0.199 ± 0.039 U/ml; effect in the anti-Factor Xa assay for UFH ([1]; in both citrate and plasma): minimal effects; effectiveness in thrombin neutralization assay [2]: ineffective; Time for clot formation ([2]; 6.0 μg peptide/0.1 ml, plasma B): 55.00 ± 4.08 s; Time for clot formation ([2]; 6.5 μg peptide/0.1 ml, plasma A): 76.33 ± 4.19 s; Time for clot formation ([2]; 6.5 μg peptide/0.1 ml, plasma C): 48.67 ± 7.72 s; Time for clot formation ([2]; 7.0 μg peptide/0.1 ml, plasma A): 61.00 ± 2.94 s; Time for clot formation ([2]; 7.0 μg peptide/0.1 ml, plasma B): 85.67 ± 3.30 s; Time for clot formation ([2]; 7.0 μg peptide/0.1 ml, plasma C): 47.67 ± 3.77 s; Time for clot formation ([2]; 7.5 μg peptide/0.1 ml, plasma A): 58.67 ± 1.89 s; Time for clot formation ([2]; 7.5 μg peptide/0.1 ml, plasma C): 180.0 ± 0.00 s; effect on blood pressure [3]: did not affect blood pressure
